According to publication PMC2644263 (Molecular cell, 2008):

Biological target: Bub1 (Homo sapiens, UniProt O43683)
Assay: in vitro […] kinase assay with purified kinase, […] ATP, phosphoimager
Assay type: biochemical

Sequence of Bub1 (O43683 724-1085): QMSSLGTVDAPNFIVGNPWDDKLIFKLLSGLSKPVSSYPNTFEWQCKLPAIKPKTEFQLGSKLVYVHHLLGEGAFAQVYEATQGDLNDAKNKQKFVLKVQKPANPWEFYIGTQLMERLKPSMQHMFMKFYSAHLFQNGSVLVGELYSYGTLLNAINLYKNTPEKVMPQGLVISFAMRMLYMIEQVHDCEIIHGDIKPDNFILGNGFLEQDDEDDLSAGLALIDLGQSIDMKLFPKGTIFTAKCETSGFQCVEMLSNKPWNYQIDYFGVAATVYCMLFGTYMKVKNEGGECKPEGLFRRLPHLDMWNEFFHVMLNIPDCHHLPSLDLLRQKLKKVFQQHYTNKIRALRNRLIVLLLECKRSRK

How did the IC50 turn out when `CC(C)(C)n1nc(Cc2ccccc2O)c2c(N)ncnc21` [2OH-BNPP1] was run?
The IC50 was ~250 nM.
